From article PMC3269340, “Pharmacokinetics of memantine in rats and mice” (PLoS Currents, 2012)
Read-outs that look alike come from different tables or passages of the source.

Assay: Pharmacokinetics in rats after single iv, po or sc dose (plasma and brain)
Assay type: in vivo, Sprague-Dawley rats
Details: male, Sprague-Dawley; for Kp: brain/plasma, read-out: Ratio of Brain-to-Plasma AUC(0-∞); for Vd: read-out: Volume of Distribution at Steady State (Vdss); for bioavailability: read-out: Bioavailability (F); for AUC(0-inf): read-out: AUC(0-∞); for Cmax: read-out: Observed Cmax
Method: Sprague Dawley (SD) rats (138 adult males), and C57Bl/6 mice (140 adult males), were obtained (Hilltop Laboratories, Scottsdale, PA); 123 per species were used in the study and the remainder provided blank matrix. Animals were individually identified by tail markings and were acclimated to the study environment for 16-21 days prior to dose administration. Animals were individually housed in suspended wire caging, and were kept on a 12h/12h light/dark cycle except when interrupted for study procedures. Average room temperature was regulated in the range 18 to 29°C, average relative humidity of 30-70%, and an average daily airflow >10 fresh air changes/h. Animals were fed LabDiet^Ò Certified Rodent Diet 5002 Meal food ad libitum, except during fasting prior to dose administration, and had access to water ad libitum.
[…] […] The concentration of memantine for the same dose level administered to mice was 0.2 mg eq./mL, and the dose volume was 5 mL/kg. The concentration of memantine in the 10mg eq./kg po and sc solutions was 5 mg eq./mL and the dose volume was 2 mL/kg for both rats and mice.
Details of the dose administration, body weights, clinical observations, plasma and brain sample collection and preparation are not shown in this report but are available upon request. Blood (for preparation of plasma) and brain samples were collected at 0.08, 0.25, 0.5, 1, 2, 4, 8, and 24h post-dose.
Since all time points were terminal, mean memantine concentrations per time point were used to calculate the composite PK parameters by non-compartmental analysis using WinNonlin program, version 5.2 (Pharsight Corp., Mountain View, California). A model was selected based on the vascular (iv bolus) or extravascular (po or sc) routes of administration. For the iv route, plasma concentration at time zero was back extrapolated from the first two observed post dose plasma concentrations. For the po and sc routes, concentration at time zero was assumed to be zero. Plasma and tissue concentrations below the limit of quantitation were treated as absent samples for the purpose of calculating the mean plasma concentration values or for calculating PK parameters.
The area under the plasma concentration versus time curve (AUC) was calculated using the linear trapezoidal method (linear interpolation). When appropriate, the terminal elimination phase of the PK profile was estimated based on the best fit (r^2) using at least the last three observed concentrations. PK parameters describing the systemic exposure of memantine in plasma and brain were estimated from observed (rather than predicted) plasma/brain concentrations, the dosing regimen, the AUC, and the terminal elimination phase rate constant (kel) for each group. The portion of the AUC from the last measurable concentration to infinity was estimated from the equation Ct/kel, where Ct represents the last measurable concentration. The extrapolated portion of the AUC was used for the determination of AUC0-∞. The percent bioavailability (%F) was calculated by dividing the dose normalized extravascular plasma AUC0-∞ by the dose normalized iv plasma AUC0-∞ times 100. The bioavailability calculations assumed concentrations were in the linear range.
Concentrations of memantine in rat and mouse plasma and brain were determined using an LC-MS/MS assay developed at ABC Laboratories.

[1] = rat, brain, iv, 1.22 mg/kg, rat brain, IV 1.22 mg eq./kg
[2] = rat, brain, po, 1.22 mg/kg, rat brain, PO 1.22 mg eq./kg
[3] = rat, brain, po, 10 mg/kg, rat brain, PO 10.0 mg eq./kg
[4] = rat, brain, sc, 1 mg/kg, rat brain, SC 1.0 mg eq./kg
[5] = rat, brain, sc, 10 mg/kg, rat brain, SC 10.0 mg eq./kg

Work on `CC12CC3CC(C)(C1)CC(N)(C3)C2` [memantine] yielded an AUC(0-t) (1 mg/kg, rat brain, SC 1.0 mg eq./kg) of 48 µM·h, a Tmax (1 mg/kg, rat brain, SC 1.0 mg eq./kg, read-out: Observed Tmax) of 0.5 h and an AUC(0-t) (1 mg/kg, rat plasma, SC 1.0 mg eq./kg) of 1.62 µM·h. For the same molecule, the Tmax (1 mg/kg, rat plasma, SC 1.0 mg eq./kg, read-out: Observed Tmax) was 0.25 h, the AUC(0-t) (1.22 mg/kg, rat brain, IV 1.22 mg eq./kg) was 43 µM·h and the Tmax (1.22 mg/kg, rat brain, IV 1.22 mg eq./kg, read-out: Observed Tmax) was 0.5 h. The AUC(0-t) (1.22 mg/kg, rat brain, PO 1.22 mg eq./kg) was 13.1 µM·h, the Tmax (1.22 mg/kg, rat brain, PO 1.22 mg eq./kg, read-out: Observed Tmax) was 2 h and the AUC(0-t) (1.22 mg/kg, rat plasma, IV 1.22 mg eq./kg) was 1.57 µM·h. It also gave an MRT inf (1.22 mg/kg, rat plasma, IV 1.22 mg eq./kg, read-out: Mean Residency Time (MRT0-∞)) of 2.08 h, an AUC(0-t) (1.22 mg/kg, rat plasma, PO 1.22 mg eq./kg) of 0.541 µM·h and a Tmax (1.22 mg/kg, rat plasma, PO 1.22 mg eq./kg, read-out: Observed Tmax) of 1 h. The AUC(0-t) (10 mg/kg, rat brain, PO 10.0 mg eq./kg) was 254 µM·h, the Tmax (10 mg/kg, rat brain, PO 10.0 mg eq./kg, read-out: Observed Tmax) was 2 h and the AUC(0-t) (10 mg/kg, rat brain, SC 10.0 mg eq./kg) was 441 µM·h. The Tmax (10 mg/kg, rat brain, SC 10.0 mg eq./kg, read-out: Observed Tmax) was 1 h, the AUC(0-t) (10 mg/kg, rat plasma, PO 10.0 mg eq./kg) was 11.2 µM·h and the Tmax (10 mg/kg, rat plasma, PO 10.0 mg eq./kg, read-out: Observed Tmax) was 0.5 h. It also gave an AUC(0-t) (10 mg/kg, rat plasma, SC 10.0 mg eq./kg) of 25.8 µM·h, a Tmax (10 mg/kg, rat plasma, SC 10.0 mg eq./kg, read-out: Observed Tmax) of 0.5 h and a Kp (rat, IV 1.22 mg eq./kg) of 29.1. For the same molecule, the Kp (rat, PO 1.22 mg eq./kg) was 35.6, the Kp (rat, PO 10.0 mg eq./kg) was 22.5 and the Kp (rat, SC 1.0 mg eq./kg) was 31.4. It also gave a Kp (rat, SC 10.0 mg eq./kg) of 17.1, a clearance (plasma, 1.22 mg/kg, rat, IV 1.22 mg eq./kg, read-out: Plasma Clearance (CLp) (converted)) of 69.2 mL/min/kg and a Vd (plasma, 1.22 mg/kg, rat, IV 1.22 mg eq./kg) of 8.62 L/kg. The bioavailability (plasma, 1.22 mg/kg, rat, PO 1.22 mg eq./kg) was 36.3%, the bioavailability (plasma, 10 mg/kg, rat, PO 10.0 mg eq./kg) was 84.9% and the concentration at 24 h (plasma, oral, rat, dose 10 mg/kg, single dose in solution, read-out: C min) was 0.03 µM. It also gave a Tmax (plasma, po, rat, dose 1 mg/kg, cross-species summary, read-out: T max) of 1 h, a Vd (plasma, rat, IV 1.22 mg eq./kg) of 8 to 9 L/kg and a bioavailability (plasma, rat, PO 1.22 mg eq./kg) of 36%. It also gave a Tmax (plasma, rat, dose 10 mg/kg, cross-species summary, read-out: T max) of 0.5 to 1 h, an AUC(0-inf) [1] of 47.6 µM·h and a half-life (rat, brain, iv, 1.22 mg/kg, rat brain, IV 1.22 mg eq./kg, read-out: Half-life (t½) (converted)) of 2.28 h. For the same molecule, the Cmax [1] was 11 µM, the half-life (rat, brain, oral, subcutaneous, summary for rats and mice, rat, read-out: brain elimination half-lives after extravascular administrations) was 2.3 to 3.8 h and the half-life (rat, brain, po, 1.22 mg/kg, rat brain, PO 1.22 mg eq./kg, estimated using the LOQ for the 24 hr concentration, large imprecision, read-out: Half-life (t½) (converted)) was less than 2.54 h. It also gave an AUC(0-inf) [2] of 21.1 µM·h, a Cmax [2] of 2.17 µM and an AUC(0-inf) [3] of 256 µM·h. The half-life (rat, brain, po, 10 mg/kg, rat brain, PO 10.0 mg eq./kg, read-out: Half-life (t½) (converted)) was 3.7 h, the Cmax [3] was 25.4 µM and the AUC(0-inf) [4] was 53 µM·h. For the same molecule, the half-life (rat, brain, sc, 1 mg/kg, rat brain, SC 1.0 mg eq./kg, read-out: Half-life (t½) (converted)) was 2.51 h, the Cmax [4] was 10.6 µM and the AUC(0-inf) [5] was 442 µM·h. It also gave a half-life (rat, brain, sc, 10 mg/kg, rat brain, SC 10.0 mg eq./kg, read-out: Half-life (t½) (converted)) of 2.65 h, a Cmax [5] of 75.4 µM and a half-life (rat, plasma, intravenous, oral, subcutaneous, rat, all dose routes and levels (plasma; b142 also brain), read-out: elimination half-life) of 3 to 4 h.
